System: oral mucositis
Assay: Treatment of oral mucositis in cancer subjects (case examples 2-6)
Type: in vivo, human
Conditions: grade IV mucositis, listed agents used with cryotherapy
Method: The efficacy and safety of the compositions comprising the disclosed acidic extract of myrrh resin were clinically assessed for prevention, treatment and/or improvement of oral and gastrointestinal mucositis.
In place of prophylactic incubation, the subject began using the composition comprising the disclosed acidic extract of myrrh resin in the form of gel four times a day.
(§1) The subject began using the composition comprising the disclosed acidic extract of myrrh resin in the form of gel four times a day.
G: oral examination performed on the second day of treatment. H: oral examination performed on the third day of treatment. I: oral examination performed on the fourth day of treatment.
as §1
D, E and F: oral examination performed on the first day of treatment. G, H, I and J: oral examination performed on the third day of treatment. K, L and M: oral examination performed on the fifth day of treatment.
B: oral examination performed on the first day of treatment. C: oral examination performed on the second day of treatment. D: oral examination performed on the third day of treatment. E: oral examination performed on the fourth day of treatment.

[1] = Example 2: Hodgkin's Lymphoma, high dose chemotherapy
[2] = Example 4: pancreatic adenocarcinoma, chemotherapy
[3] = Example 5: Larynx CA, induction chemotherapy
[4] = Example 6: larynx malignant neoplasma, radiation therapy

SMILES	effect of earlier treatment of the oral lesions [1]	effect of earlier treatment of the oral lesions [2]	effect of earlier treatment of the oral lesions [3]	effect of earlier treatment of the oral lesions [4]
N=C(NCCCCCCNC(=N)NC(=N)Nc1ccc(Cl)cc1)NC(=N)Nc1ccc(Cl)cc1.O=C(O)[C@H](O)[C@@H](O)[C@H](O)[C@H](O)CO.O=C(O)[C@H](O)[C@@H](O)[C@H](O)[C@H](O)CO [chlorhexidine gluconate]	not effective	mild decrease in mucositis	mild decrease in mucositis	not effective
O=C([O-])O.[Na+] [sodium bicarbonate]	not effective	mild decrease in mucositis	mild decrease in mucositis	not effective

— patent US11331360B2, “Commiphora molmol (myrrh) resin extracts and uses thereof for wound healing and treatment and prevention of mucositis and other diseases” (Umayana LLC, priority 2018, dated 2022)
